Values quoted from earlier work in PMC7587962, “Evaluation of Cytotoxicity and α-Glucosidase Inhibitory Activity of Amide and Polyamino-Derivatives of Lupane Triterpenoids” (Molecules, 2020).

Assays:
CCRF-CEM = tested on: CCRF-CEM; set-up: method as in PMID 25405285; conditions: standard drugs used by NCI as control; cited from earlier work
K-562 = tested on: K-562; set-up: method as in PMID 25405285; conditions: standard drugs used by NCI as control; cited from earlier work
MOLT-4 = tested on: MOLT-4; set-up: method as in PMID 25405285; conditions: standard drugs used by NCI as control; cited from earlier work
RPMI-8226 = tested on: RPMI-8226; set-up: method as in PMID 25405285; conditions: standard drugs used by NCI as control; cited from earlier work
A549/ATCC = tested on: A549/ATCC; set-up: method as in PMID 25405285; conditions: standard drugs used by NCI as control; cited from earlier work
HOP-62 = tested on: HOP-62; set-up: method as in PMID 25405285; conditions: standard drugs used by NCI as control; cited from earlier work
HOP-92 = tested on: HOP-92; set-up: method as in PMID 25405285; conditions: standard drugs used by NCI as control; cited from earlier work
NCI-H226 = tested on: NCI-H226; set-up: method as in PMID 25405285; conditions: standard drugs used by NCI as control; cited from earlier work
NCI-H23 = tested on: NCI-H23; set-up: method as in PMID 25405285; conditions: standard drugs used by NCI as control; cited from earlier work
NCI-H460 = tested on: NCI-H460; set-up: method as in PMID 25405285; conditions: standard drugs used by NCI as control; cited from earlier work
NCI-H522 = tested on: NCI-H522; set-up: method as in PMID 25405285; conditions: standard drugs used by NCI as control; cited from earlier work
COLO 205 = tested on: COLO 205; set-up: method as in PMID 25405285; conditions: standard drugs used by NCI as control; cited from earlier work
HCC-2998 = tested on: HCC-2998; set-up: method as in PMID 25405285; conditions: standard drugs used by NCI as control; cited from earlier work
HCT-116 = tested on: HCT-116; set-up: method as in PMID 25405285; conditions: standard drugs used by NCI as control; cited from earlier work
HCT-15 = tested on: HCT-15; set-up: method as in PMID 25405285; conditions: standard drugs used by NCI as control; cited from earlier work
HT29 = tested on: HT29; set-up: method as in PMID 25405285; conditions: standard drugs used by NCI as control; cited from earlier work
KM12 = tested on: KM12; set-up: method as in PMID 25405285; conditions: standard drugs used by NCI as control; cited from earlier work
SW-620 = tested on: SW-620; set-up: method as in PMID 25405285; conditions: standard drugs used by NCI as control; cited from earlier work
SF-268 = tested on: SF-268; set-up: method as in PMID 25405285; conditions: standard drugs used by NCI as control; cited from earlier work
SF-539 = tested on: SF-539; set-up: method as in PMID 25405285; conditions: standard drugs used by NCI as control; cited from earlier work
SNB-19 = tested on: SNB-19; set-up: method as in PMID 25405285; conditions: standard drugs used by NCI as control; cited from earlier work
SNB-75 = tested on: SNB-75; set-up: method as in PMID 25405285; conditions: standard drugs used by NCI as control; cited from earlier work
U251 = tested on: U251; set-up: method as in PMID 25405285; conditions: standard drugs used by NCI as control; cited from earlier work
LOX IMVI = tested on: LOX IMVI; set-up: method as in PMID 25405285; conditions: standard drugs used by NCI as control; cited from earlier work
MALME-3M = tested on: MALME-3M; set-up: method as in PMID 25405285; conditions: standard drugs used by NCI as control; cited from earlier work
M14 = tested on: M14; set-up: method as in PMID 25405285; conditions: standard drugs used by NCI as control; cited from earlier work
MDA-MB-435 = tested on: MDA-MB-435; set-up: method as in PMID 25405285; conditions: standard drugs used by NCI as control; cited from earlier work
SK-MEL-2 = tested on: SK-MEL-2; set-up: method as in PMID 25405285; conditions: standard drugs used by NCI as control; cited from earlier work
SK-MEL-28 = tested on: SK-MEL-28; set-up: method as in PMID 25405285; conditions: standard drugs used by NCI as control; cited from earlier work
SK-MEL-5 = tested on: SK-MEL-5; set-up: method as in PMID 25405285; conditions: standard drugs used by NCI as control; cited from earlier work
UACC-257 = tested on: UACC-257; set-up: method as in PMID 25405285; conditions: standard drugs used by NCI as control; cited from earlier work
UACC-62 = tested on: UACC-62; set-up: method as in PMID 25405285; conditions: standard drugs used by NCI as control; cited from earlier work
IGROV1 = tested on: IGROV1; set-up: method as in PMID 25405285; conditions: standard drugs used by NCI as control; cited from earlier work
OVCAR-3 = tested on: OVCAR-3; set-up: method as in PMID 25405285; conditions: standard drugs used by NCI as control; cited from earlier work
OVCAR-4 = tested on: OVCAR-4; set-up: method as in PMID 25405285; conditions: standard drugs used by NCI as control; cited from earlier work
OVCAR-5 = tested on: OVCAR-5; set-up: method as in PMID 25405285; conditions: standard drugs used by NCI as control; cited from earlier work
OVCAR-8 = tested on: OVCAR-8; set-up: method as in PMID 25405285; conditions: standard drugs used by NCI as control; cited from earlier work
NCI/ADR-RES = tested on: NCI/ADR-RES; set-up: method as in PMID 25405285; conditions: standard drugs used by NCI as control; cited from earlier work
SK-OV-3 = tested on: SK-OV-3; set-up: method as in PMID 25405285; conditions: standard drugs used by NCI as control; cited from earlier work
786-0 = tested on: 786-0; set-up: method as in PMID 25405285; conditions: standard drugs used by NCI as control; cited from earlier work
A498 = tested on: A498; set-up: method as in PMID 25405285; conditions: standard drugs used by NCI as control; cited from earlier work
ACHN = tested on: ACHN; set-up: method as in PMID 25405285; conditions: standard drugs used by NCI as control; cited from earlier work
CAKI-1 = tested on: CAKI-1; set-up: method as in PMID 25405285; conditions: standard drugs used by NCI as control; cited from earlier work
RXF 393 = tested on: RXF 393; set-up: method as in PMID 25405285; conditions: standard drugs used by NCI as control; cited from earlier work
SN12C = tested on: SN12C; set-up: method as in PMID 25405285; conditions: standard drugs used by NCI as control; cited from earlier work
TK-10 = tested on: TK-10; set-up: method as in PMID 25405285; conditions: standard drugs used by NCI as control; cited from earlier work
UO-31 = tested on: UO-31; set-up: method as in PMID 25405285; conditions: standard drugs used by NCI as control; cited from earlier work
PC-3 = tested on: PC-3; set-up: method as in PMID 25405285; conditions: standard drugs used by NCI as control; cited from earlier work
DU-145 = tested on: DU-145; set-up: method as in PMID 25405285; conditions: standard drugs used by NCI as control; cited from earlier work
MCF7 = tested on: MCF7; set-up: method as in PMID 25405285; conditions: standard drugs used by NCI as control; cited from earlier work
MDA-MB-231/ATCC = tested on: MDA-MB-231/ATCC; set-up: method as in PMID 25405285; conditions: MDA-MB-31/ATCC; standard drugs used by NCI as control; cited from earlier work
HS 578T = tested on: HS 578T; set-up: method as in PMID 25405285; conditions: standard drugs used by NCI as control; cited from earlier work
BT-549 = tested on: BT-549; set-up: method as in PMID 25405285; conditions: standard drugs used by NCI as control; cited from earlier work
T-47D = tested on: T-47D; set-up: method as in PMID 25405285; conditions: standard drugs used by NCI as control; cited from earlier work
HL-60(TB) = conditions: standard drugs used by NCI as control; cited from earlier work

Question: With `O=c1[nH]cc(F)c(=O)[nH]1` [Compound 5-FU, 5-fluorouracil] as the compound, how does the GI50 (CCRF-CEM) read?
Answer: 9970 nM

Question: What about the GI50 (K-562) of the same compound?
Answer: 3580 nM

Question: What about the GI50 (MOLT-4) of the same compound?
Answer: 350 nM

Question: What about the GI50 (RPMI-8226) of the same compound?
Answer: 40 nM

Question: And the GI50 (A549/ATCC)?
Answer: 180 nM

Question: What about the GI50 (HOP-62) of the same compound?
Answer: 390 nM

Question: And the GI50 (HOP-92)?
Answer: 77900 nM

Question: And the GI50 (NCI-H226)?
Answer: 54700 nM

Question: And the GI50 (NCI-H23)?
Answer: 330 nM

Question: And the GI50 (NCI-H460)?
Answer: 50 nM

Question: And the GI50 (NCI-H522)?
Answer: 7270 nM

Question: What about the GI50 (COLO 205) of the same compound?
Answer: 150 nM

Question: And the GI50 (HCC-2998)?
Answer: 50 nM

Question: What about the GI50 (HCT-116) of the same compound?
Answer: 220 nM

Question: What about the GI50 (HCT-15) of the same compound?
Answer: 110 nM

Question: What about the GI50 (HT29) of the same compound?
Answer: 170 nM

Question: And the GI50 (KM12)?
Answer: 210 nM

Question: What about the GI50 (SW-620) of the same compound?
Answer: 920 nM

Question: What about the GI50 (SF-268) of the same compound?
Answer: 1620 nM

Question: And the GI50 (SF-539)?
Answer: 60 nM

Question: And the GI50 (SNB-19)?
Answer: 3810 nM

Question: And the GI50 (SNB-75)?
Answer: 78700 nM

Question: And the GI50 (U251)?
Answer: 920 nM

Question: What about the GI50 (LOX IMVI) of the same compound?
Answer: 240 nM

Question: And the GI50 (MALME-3M)?
Answer: 50 nM

Question: And the GI50 (M14)?
Answer: 980 nM

Question: What about the GI50 (MDA-MB-435) of the same compound?
Answer: 70 nM

Question: And the GI50 (SK-MEL-2)?
Answer: 56700 nM

Question: And the GI50 (SK-MEL-28)?
Answer: 1030 nM

Question: And the GI50 (SK-MEL-5)?
Answer: 460 nM

Question: What about the GI50 (UACC-257) of the same compound?
Answer: 3550 nM

Question: And the GI50 (UACC-62)?
Answer: 520 nM

Question: What about the GI50 (IGROV1) of the same compound?
Answer: 1220 nM

Question: And the GI50 (OVCAR-3)?
Answer: 10 nM

Question: What about the GI50 (OVCAR-4) of the same compound?
Answer: 4430 nM

Question: And the GI50 (OVCAR-5)?
Answer: 10900 nM

Question: What about the GI50 (OVCAR-8) of the same compound?
Answer: 1740 nM

Question: What about the GI50 (NCI/ADR-RES) of the same compound?
Answer: 310 nM

Question: What about the GI50 (SK-OV-3) of the same compound?
Answer: 21800 nM

Question: And the GI50 (786-0)?
Answer: 720 nM

Question: What about the GI50 (A498) of the same compound?
Answer: 350 nM

Question: And the GI50 (ACHN)?
Answer: 270 nM

Question: And the GI50 (CAKI-1)?
Answer: 70 nM

Question: What about the GI50 (RXF 393) of the same compound?
Answer: 2610 nM

Question: And the GI50 (SN12C)?
Answer: 490 nM

Question: And the GI50 (TK-10)?
Answer: 1120 nM

Question: What about the GI50 (UO-31) of the same compound?
Answer: 1420 nM

Question: And the GI50 (PC-3)?
Answer: 2360 nM

Question: And the GI50 (DU-145)?
Answer: 360 nM

Question: And the GI50 (MCF7)?
Answer: 70 nM

Question: And the GI50 (MDA-MB-231/ATCC)?
Answer: 6600 nM

Question: What about the GI50 (HS 578T) of the same compound?
Answer: 9770 nM

Question: What about the GI50 (BT-549) of the same compound?
Answer: 10600 nM

Question: And the GI50 (T-47D)?
Answer: 8120 nM

Question: And the GI50 (HL-60(TB))?
Answer: 2300 nM
